These are literature values, as cited in patent publication US20060057203A1 (priority 2002, published 2006).

For `NC(=O)N1c2ccccc2CC(=O)c2ccccc21` [oxcarbazepine], the solubility in water result is “practically insoluble”.
